Holding throughout (assay): Kinase selectivity, P33-radiolabeled assay
Format in all cases: biochemical
Conditions in all cases: 10 μM ATP

One experiment addresses T1, DDR2 (Homo sapiens, UniProt Q16832).
T1 construct: purchased Reaction Biology Corp
T1 sequence (Q16832 22-855): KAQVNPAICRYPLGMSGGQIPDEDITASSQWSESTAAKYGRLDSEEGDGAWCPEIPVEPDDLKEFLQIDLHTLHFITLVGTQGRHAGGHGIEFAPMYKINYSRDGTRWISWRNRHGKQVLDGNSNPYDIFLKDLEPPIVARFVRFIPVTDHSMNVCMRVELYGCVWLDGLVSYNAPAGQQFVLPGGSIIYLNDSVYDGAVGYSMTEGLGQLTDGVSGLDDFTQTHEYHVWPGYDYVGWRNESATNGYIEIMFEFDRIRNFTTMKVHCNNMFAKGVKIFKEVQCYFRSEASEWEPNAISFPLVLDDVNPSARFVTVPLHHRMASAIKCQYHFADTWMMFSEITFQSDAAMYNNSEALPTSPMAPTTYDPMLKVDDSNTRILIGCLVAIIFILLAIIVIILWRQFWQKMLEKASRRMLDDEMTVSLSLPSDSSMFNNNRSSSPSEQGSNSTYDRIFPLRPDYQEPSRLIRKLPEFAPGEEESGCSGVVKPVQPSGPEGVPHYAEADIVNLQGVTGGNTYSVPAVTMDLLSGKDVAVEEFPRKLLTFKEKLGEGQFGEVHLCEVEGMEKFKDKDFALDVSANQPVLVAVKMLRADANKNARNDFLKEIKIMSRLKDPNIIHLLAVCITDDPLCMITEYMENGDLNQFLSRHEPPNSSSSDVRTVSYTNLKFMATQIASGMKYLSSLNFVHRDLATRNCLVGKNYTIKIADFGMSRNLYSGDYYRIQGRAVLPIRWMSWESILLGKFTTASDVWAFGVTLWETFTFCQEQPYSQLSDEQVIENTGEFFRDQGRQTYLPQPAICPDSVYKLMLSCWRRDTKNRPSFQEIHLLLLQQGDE
In a few lines: (§1)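 Activity relative to DMSO controls (%) was measured for compound at 10 μM. Assays ran at 10 μM ATP, in duplicate.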

For a further experiment, the target named is T2, PBK/TOPK (Homo sapiens, UniProt Q96KB5).
T2 construct: purchased Reaction Biology Corp
T2 sequence (Q96KB5 1-322): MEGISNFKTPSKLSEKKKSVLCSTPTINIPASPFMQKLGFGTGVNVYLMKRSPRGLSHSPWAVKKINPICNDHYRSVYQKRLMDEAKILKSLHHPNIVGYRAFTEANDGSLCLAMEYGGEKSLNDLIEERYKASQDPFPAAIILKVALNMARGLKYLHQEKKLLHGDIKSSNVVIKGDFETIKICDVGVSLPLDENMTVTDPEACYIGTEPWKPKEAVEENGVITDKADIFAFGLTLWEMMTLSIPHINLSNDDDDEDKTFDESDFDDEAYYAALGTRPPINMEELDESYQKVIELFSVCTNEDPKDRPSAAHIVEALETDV
In a few lines:
as §1

In the next experiment the target is T3, PHKg2 (Homo sapiens, UniProt P15735).
T3 construct: purchased Reaction Biology Corp
T3 sequence (P15735 1-406): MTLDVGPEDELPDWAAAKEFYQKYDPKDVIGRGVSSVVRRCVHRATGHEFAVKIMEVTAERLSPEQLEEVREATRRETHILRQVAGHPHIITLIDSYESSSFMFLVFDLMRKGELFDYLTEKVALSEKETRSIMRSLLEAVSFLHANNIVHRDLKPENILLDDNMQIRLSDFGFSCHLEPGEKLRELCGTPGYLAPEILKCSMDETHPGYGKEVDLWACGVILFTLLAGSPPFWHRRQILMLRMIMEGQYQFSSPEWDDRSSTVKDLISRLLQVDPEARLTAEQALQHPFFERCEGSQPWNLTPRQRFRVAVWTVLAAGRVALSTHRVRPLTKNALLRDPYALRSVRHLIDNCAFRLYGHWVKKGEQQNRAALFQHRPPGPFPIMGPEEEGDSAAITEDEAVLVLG
In a few lines:
as §1

The next experiment concerns the target T4, PKCtheta (Homo sapiens, UniProt Q04759).
T4 construct: purchased Reaction Biology Corp
In a few lines:
as §1

The next experiment concerns the target T5, PKN3/PRK3 (Homo sapiens, UniProt Q6P5Z2).
T5 construct: purchased Reaction Biology Corp
In a few lines: as §1

The next experiment addresses T6, TIE2/TEK (Homo sapiens, UniProt Q02763).
T6 construct: purchased Reaction Biology Corp
The procedure, abridged: as §1

In the next experiment the target is T7, TLK1 (Homo sapiens, UniProt Q9UKI8).
T7 construct: purchased Reaction Biology Corp
T7 sequence (Q9UKI8 1-766): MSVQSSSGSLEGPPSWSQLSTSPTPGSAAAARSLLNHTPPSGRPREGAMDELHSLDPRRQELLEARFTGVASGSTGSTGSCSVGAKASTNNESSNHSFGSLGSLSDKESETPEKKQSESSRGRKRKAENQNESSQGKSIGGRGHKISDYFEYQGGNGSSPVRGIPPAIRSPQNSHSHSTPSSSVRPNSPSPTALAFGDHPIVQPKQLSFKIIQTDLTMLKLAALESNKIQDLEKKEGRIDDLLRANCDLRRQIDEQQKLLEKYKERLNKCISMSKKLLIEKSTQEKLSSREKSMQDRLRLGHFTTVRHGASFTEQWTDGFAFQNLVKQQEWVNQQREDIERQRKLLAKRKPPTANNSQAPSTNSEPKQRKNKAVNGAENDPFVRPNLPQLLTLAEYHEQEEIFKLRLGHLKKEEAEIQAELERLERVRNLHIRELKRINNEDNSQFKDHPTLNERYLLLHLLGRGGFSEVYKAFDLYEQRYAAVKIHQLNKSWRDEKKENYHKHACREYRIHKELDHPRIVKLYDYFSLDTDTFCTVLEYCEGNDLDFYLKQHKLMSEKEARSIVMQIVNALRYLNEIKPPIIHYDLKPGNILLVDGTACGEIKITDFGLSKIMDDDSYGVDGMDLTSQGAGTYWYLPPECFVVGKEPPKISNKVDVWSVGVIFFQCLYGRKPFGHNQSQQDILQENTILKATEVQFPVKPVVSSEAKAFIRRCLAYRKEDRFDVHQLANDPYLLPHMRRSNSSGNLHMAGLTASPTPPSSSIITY
In a few lines: as §1

The target in another experiment is T8, TLK2 (Homo sapiens, UniProt Q86UE8).
T8 construct: purchased Reaction Biology Corp
T8 sequence (Q86UE8 whole entry): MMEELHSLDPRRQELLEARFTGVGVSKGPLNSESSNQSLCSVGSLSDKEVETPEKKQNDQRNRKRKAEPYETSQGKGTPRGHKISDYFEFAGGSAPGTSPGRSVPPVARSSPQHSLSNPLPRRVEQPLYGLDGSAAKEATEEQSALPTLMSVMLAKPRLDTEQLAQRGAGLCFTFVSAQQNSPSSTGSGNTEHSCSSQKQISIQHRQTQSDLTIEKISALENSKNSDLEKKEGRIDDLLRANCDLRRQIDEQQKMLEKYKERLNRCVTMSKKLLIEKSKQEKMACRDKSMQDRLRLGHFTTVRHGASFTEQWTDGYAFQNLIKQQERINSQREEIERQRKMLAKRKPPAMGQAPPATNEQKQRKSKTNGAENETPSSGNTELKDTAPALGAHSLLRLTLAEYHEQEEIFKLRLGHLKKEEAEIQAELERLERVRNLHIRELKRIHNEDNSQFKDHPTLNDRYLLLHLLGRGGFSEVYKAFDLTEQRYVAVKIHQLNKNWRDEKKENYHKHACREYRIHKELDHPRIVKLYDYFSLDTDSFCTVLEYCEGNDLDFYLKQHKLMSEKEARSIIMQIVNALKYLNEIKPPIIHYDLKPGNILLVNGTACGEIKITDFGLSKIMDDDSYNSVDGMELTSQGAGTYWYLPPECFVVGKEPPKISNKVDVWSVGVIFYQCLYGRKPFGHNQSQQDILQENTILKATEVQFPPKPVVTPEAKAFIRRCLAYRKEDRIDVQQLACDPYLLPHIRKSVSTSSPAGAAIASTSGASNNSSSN
The procedure, abridged: as §1

[1] abbreviates: read-out: % Enzyme Activity (relative to DMSO controls) AVG.
Setting [2] is: read-out: % Enzyme Activity (relative to DMSO controls) Data 1.
Setting [3] is: read-out: % Enzyme Activity (relative to DMSO controls) Data 2.

Where two headings read alike, the source gives them in different places.

T4 sequence (Q04759 whole entry): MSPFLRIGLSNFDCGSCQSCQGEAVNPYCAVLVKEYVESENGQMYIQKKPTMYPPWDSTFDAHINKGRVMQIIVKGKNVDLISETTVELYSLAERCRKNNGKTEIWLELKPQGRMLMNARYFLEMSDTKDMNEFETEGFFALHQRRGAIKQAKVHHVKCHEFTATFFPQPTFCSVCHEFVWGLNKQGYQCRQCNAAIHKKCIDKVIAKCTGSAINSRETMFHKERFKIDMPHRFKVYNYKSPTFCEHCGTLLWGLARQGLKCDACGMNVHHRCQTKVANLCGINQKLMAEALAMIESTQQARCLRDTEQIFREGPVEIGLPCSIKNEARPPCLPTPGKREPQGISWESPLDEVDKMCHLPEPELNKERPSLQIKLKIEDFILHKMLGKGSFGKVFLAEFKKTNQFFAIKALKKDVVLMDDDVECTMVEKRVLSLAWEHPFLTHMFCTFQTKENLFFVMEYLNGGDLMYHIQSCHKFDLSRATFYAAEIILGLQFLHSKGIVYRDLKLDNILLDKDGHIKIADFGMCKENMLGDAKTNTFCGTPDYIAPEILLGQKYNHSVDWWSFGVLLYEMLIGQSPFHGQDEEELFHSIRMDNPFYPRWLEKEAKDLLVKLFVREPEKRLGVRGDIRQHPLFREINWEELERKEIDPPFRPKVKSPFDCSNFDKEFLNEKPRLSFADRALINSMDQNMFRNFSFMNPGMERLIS
T6 sequence (Q02763 23-1124): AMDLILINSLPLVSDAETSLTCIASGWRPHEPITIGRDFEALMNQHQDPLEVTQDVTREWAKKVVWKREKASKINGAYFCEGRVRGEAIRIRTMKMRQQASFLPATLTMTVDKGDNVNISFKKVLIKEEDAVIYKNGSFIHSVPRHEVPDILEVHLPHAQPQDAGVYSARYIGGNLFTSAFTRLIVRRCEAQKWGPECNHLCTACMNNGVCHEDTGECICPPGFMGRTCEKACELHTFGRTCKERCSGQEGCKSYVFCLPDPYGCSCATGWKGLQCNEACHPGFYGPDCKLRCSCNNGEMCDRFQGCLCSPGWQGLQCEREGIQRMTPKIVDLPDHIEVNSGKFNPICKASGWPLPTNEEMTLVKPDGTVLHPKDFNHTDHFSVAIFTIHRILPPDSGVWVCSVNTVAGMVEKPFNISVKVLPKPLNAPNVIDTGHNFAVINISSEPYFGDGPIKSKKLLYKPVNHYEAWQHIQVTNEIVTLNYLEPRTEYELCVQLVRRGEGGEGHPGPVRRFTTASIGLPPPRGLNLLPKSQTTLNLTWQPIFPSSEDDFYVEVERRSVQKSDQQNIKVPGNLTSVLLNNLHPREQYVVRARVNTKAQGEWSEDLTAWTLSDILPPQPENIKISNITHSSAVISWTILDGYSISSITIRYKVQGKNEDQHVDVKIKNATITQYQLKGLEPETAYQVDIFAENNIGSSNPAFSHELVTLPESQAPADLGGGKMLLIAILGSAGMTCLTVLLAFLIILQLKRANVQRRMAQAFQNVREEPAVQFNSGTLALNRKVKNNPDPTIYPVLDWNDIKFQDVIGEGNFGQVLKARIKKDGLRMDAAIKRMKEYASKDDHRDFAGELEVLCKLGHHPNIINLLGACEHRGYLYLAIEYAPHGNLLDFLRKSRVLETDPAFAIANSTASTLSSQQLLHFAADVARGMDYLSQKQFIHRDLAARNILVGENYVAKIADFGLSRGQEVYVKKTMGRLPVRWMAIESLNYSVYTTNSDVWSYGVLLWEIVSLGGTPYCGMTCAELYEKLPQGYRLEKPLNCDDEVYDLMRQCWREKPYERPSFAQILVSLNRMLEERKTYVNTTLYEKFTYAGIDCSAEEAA
T5 sequence (Q6P5Z2 whole entry): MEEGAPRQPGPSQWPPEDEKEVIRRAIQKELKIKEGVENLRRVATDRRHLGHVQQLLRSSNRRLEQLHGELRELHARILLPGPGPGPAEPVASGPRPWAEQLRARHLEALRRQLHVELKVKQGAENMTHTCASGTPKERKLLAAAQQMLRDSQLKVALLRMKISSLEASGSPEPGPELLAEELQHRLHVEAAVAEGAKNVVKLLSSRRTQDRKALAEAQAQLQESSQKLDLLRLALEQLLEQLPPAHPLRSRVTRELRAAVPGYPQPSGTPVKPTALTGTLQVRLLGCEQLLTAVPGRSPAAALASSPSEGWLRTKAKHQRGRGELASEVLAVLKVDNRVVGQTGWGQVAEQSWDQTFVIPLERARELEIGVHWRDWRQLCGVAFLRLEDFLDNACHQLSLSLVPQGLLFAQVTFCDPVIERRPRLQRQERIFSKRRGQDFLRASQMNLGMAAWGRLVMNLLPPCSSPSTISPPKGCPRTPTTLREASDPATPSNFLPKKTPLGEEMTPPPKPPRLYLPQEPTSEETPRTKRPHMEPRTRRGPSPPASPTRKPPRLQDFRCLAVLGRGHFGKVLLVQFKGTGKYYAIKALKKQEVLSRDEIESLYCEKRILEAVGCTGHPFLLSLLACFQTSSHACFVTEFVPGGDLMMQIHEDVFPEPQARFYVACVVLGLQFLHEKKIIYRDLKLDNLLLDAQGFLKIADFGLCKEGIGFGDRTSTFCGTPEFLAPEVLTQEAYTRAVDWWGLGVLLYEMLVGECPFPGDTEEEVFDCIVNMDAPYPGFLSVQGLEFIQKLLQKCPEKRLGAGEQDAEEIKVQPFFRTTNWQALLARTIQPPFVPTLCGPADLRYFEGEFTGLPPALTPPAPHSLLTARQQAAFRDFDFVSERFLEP

Take `CC(C)(C)C(=O)N1N=CC[C@H]1c1ccccc1` [GSK′963]: the remaining activity at 10 µM is 93.2% at DDR2 (setting [1]); 94% at DDR2 (setting [2]); 92.4% at DDR2 (setting [3]); 104% at PBK/TOPK (setting [1]); 103% on PBK/TOPK (setting [2]); 105% at PBK/TOPK (setting [3]). For the same compound, the remaining activity at 10 µM on PHKg2 (setting [1]) came to 110%; at PHKg2 (setting [2]), 111%; at PHKg2 (setting [3]), 110%; at PKCtheta (setting [1]) it was 96.8%; at PKCtheta (setting [2]), 97%; at PKCtheta (setting [3]), 96.7%. The remaining activity at 10 µM at PKN3/PRK3 (setting [1]) amounted to 94%; at PKN3/PRK3 (setting [2]), 92.9%; at PKN3/PRK3 (setting [3]), 95.1%; at TIE2/TEK (setting [1]), 98.1%; at TIE2/TEK (setting [2]), 95.5%; at TIE2/TEK (setting [3]) it was 101%. For the same compound, the remaining activity at 10 µM was 97.5% on TLK1 (setting [1]); 101% at TLK1 (setting [2]); 93.9% at TLK1 (setting [3]); 93.2% at TLK2 (setting [1]); 92.9% on TLK2 (setting [2]); 93.5% at TLK2 (setting [3]).

Values taken from publication PMC4979471 (Cell Death Discovery, 2015).
